Measurements published in patent US12447159B2 (AELIS FARMA, priority 2018, dated 2025).
Marks after values point to notes of the source that are not given here.

What was measured:
[1] = system: diet-induced obese (DIO) mouse model; assay: Repeated treatment: food intake and body weight in diet-induced obese (DIO) mice; assay type: in vivo; settings: for Inhibition of food-intake and body weight (repeated administration): Effect (Rimonabant): 10 mg/kg
Method: Male C57BL/6J mice were fed ad libitum with a high-fat diet (HFD) for 8 weeks before the start of the pharmacological treatments. During pharmacological treatments, the HFD was maintained and food intake and body weight were measured daily. The food consumed was calculated by subtracting the food left in the hoppers from the initial pre-weighted amount. […] 3pMBP and rimonabant were administered by oral gavage once a day, two hours before the start of the dark phase of the light/dark cycle.

[2] = at doses quite close to the therapeutic dose; cited from earlier work
[3] = system: THC dependent mice; assay: Precipitated withdrawal in mice chronically treated with THC; assay type: in vivo; settings: mouse, in vivo
Method: The chronic THC regimen (20 mg/kg, twice a day) used in these experiments has been chosen because it mimics heavy marijuana use (Cook et al., 1998) and is considered as a model of cannabinoids dependence in mice (Cutando et al., 2013; Hutcheson et al., 1998). […] From day 1 to 4-5, mice were injected ip with vehicle or THC (20 mg/kg in NaCl 0.9% containing 2% ethanol and 2% Tween80, 10 ml/kg) twice a day. […] All the other animals received the administration of the respective vehicle. […] The dose and schedule of administration of rimonabant chosen for this study has been commonly used to precipitate THC withdrawal in mice (Cook et al. 1998, Hutcheson et al., 1998, Huang et al., 2009).
For the measure of precipitated withdrawal, mice were placed in a novel home cage and a video camera positioned in front of each cage recorded animals' behaviors. Scoring was performed for 1 minute every 5 min-period. Two withdrawal signs were analyzed: paw tremors and head shaking, since they are the most common signs of THC withdrawal observed in mice (Cook et al. 1998, Hutcheson et al., 1998, Lichtman et al., 2001).

[4] = system: corticosterone; settings: from Steiner et al., 2008, cited from earlier work
[5] = system: diet-induced obese (DIO) mouse model; assay: Repeated treatment: food intake and body weight in diet-induced obese (DIO) mice; assay type: in vivo; settings: vs vehicle; Rimo 10 mg/kg ip; 3pMBP 0.005-15 mg/kg per os
[6] = system: anxiety- and depression-related behaviors in mice; assay: Repeated administration: anxiety- and depression-related behaviors (elevated plus maze, sucrose preference test); assay type: in vivo; settings: for Increase in anxiety and depression related behaviors (repeated administration): Effect (Rimonabant): 28 days, 10 mg/kg
Method: The EPM apparatus was made of four elevated arms arranged in a cross-like disposition, with two opposite arms being enclosed by walls and the two other arms being open. For all the experiments, after receiving the appropriate treatment mice were placed in the center of the EPM and let free to explore the maze for 5 minutes. The time spent and the number of entries into the open arms and closed arms were measured by an automatic videotracking system. A decrease in the percentages of visits and/or of the time spent in open arms is considered an index of increase in anxiety levels.
The sucrose preference test was performed in the home cage of the mice. Two identical bottles, one containing water and the other one containing a 2%-sucrose solution were placed in the hopper of each home cage. […] The volumes of water and of sucrose solutions drank by the mice were measured over two 1.30 h intervals, the first between 7.00 pm and 8.30 pm and the second between 8.30 pm and 10.00 pm. At each time point, the bottles were weighed and the intake volume was calculated by subtracting the initial bottle weight to the final bottle weight.
At day 26, mice were subjected to the EPM and at day 28 to the sucrose preference test.

[7] = Metabolic profiling of [3H]-3pMBP in plasma and excreta in the rat (Radio-HPLC); settings: in vivo
Method: The metabolic profile was evaluated in plasma, in urines and feces and the radio-labelled metabolites were identified by their retention time using Radio-HPLC analysis. The results are expressed as % of the sum of all the detected peak areas.

[8] = system: central benzodiazepine receptor; assay: Binding selectivity, ligand displacement; settings: 10 μM
Source text: (§1) The CEREP High-throughput profile consists of a broad collection of 80 transmembrane and soluble receptors, ion channels and G-Protein coupled receptors.

[9] = biological target: T1, peripheral benzodiazepine receptor (Rattus norvegicus, UniProt P16257); assay: Binding selectivity, ligand displacement; settings: 10 μM
T1 construct: CEREP
Source text: as §1

[10] = biological target: T2, progesterone receptor (Homo sapiens, UniProt P06401); assay: Binding selectivity, ligand displacement; settings: 10 μM
T2 construct: CEREP
T2 sequence (P06401 whole entry): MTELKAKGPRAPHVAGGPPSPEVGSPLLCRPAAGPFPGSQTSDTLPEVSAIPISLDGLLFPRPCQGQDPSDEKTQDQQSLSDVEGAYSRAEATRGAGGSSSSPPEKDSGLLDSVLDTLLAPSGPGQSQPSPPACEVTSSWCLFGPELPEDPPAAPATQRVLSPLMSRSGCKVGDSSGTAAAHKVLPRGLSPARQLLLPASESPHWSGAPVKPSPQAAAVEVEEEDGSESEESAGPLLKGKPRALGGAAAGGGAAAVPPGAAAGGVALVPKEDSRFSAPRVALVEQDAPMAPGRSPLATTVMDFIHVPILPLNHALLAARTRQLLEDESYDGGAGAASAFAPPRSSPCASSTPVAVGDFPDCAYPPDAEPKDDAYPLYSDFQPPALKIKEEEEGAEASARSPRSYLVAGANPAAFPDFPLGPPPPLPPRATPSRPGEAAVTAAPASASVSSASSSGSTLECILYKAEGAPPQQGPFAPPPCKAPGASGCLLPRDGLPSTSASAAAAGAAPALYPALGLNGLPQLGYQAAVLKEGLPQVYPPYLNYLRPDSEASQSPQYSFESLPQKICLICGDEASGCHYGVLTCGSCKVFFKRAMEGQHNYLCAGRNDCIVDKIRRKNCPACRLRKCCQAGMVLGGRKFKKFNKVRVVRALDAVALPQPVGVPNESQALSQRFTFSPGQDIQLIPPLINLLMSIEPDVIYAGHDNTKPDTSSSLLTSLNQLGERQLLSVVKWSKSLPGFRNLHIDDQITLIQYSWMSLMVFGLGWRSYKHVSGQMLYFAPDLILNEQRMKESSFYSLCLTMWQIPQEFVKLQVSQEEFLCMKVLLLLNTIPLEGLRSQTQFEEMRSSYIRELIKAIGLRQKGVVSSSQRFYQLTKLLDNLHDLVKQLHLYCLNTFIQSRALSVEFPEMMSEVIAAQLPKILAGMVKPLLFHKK
Source text: as §1

[11] = male mice, listed as rimonabant
[12] = vs reference ID100 for rimonabant effects = 10 mg/kg
[13] = 28 days once a day, 3pMBP 0.05, 5, 15 mg/kg per os, Rimo 10 mg/kg ip

With `Cc1c(C(=O)NN2CCCCC2)nn(-c2ccc(Cl)cc2Cl)c1-c1ccc(Cl)cc1` [Rimonabant, rimonabant] the IC100 ([1]; Rimonabant, male mice) was 10 mg/kg, the “Inhibition of food-intake and body weight (repeated administration): Effect (Rimonabant)” value ([1]; male mice) was “Yes” and the “Inhibition of food-intake and body weight (repeated administration): Effect (Rimonabant)” value [1, 11] was “decreased both food intake and body weight”. For the same molecule, the “N fold IC100” value [1, 12] was 1, the “Food intake in obese mice” value ([1]; vs vehicle, Rimo 10 mg/kg ip, 3pMBP 0.005-15 mg/kg per os) was “decreases food intake” and the “Adverse events in GLP safety and toxicity studies” value [2] was “clonic convulsion, hepatotoxicity and several profound alterations in behavior”. For the same molecule, the IC100 [3] was 10 mg/kg, the IC100 ([4]; Rimonabant) was 2 mg/kg and the “Increase in glucocorticoid secretion: Effect (Rimonabant)” value ([4]; mice) was “Yes”. For the same molecule, the “N fold IC100” value ([4]; vs reference ID100 for rimonabant = 10 mg/kg) was 0.2^#, the “Body weight in obese mice” value [5] was “decreases body weight” and the “Percentage of time spent in the open arms of the elevated plus maze” value [6, 13] was “decreases the time spent in open arms”. The “Percentage of visits in the open arms of the elevated plus maze” value [6, 13] was “decreases the percentage of visits in open arms”, the “Sucrose intake (sucrose preference test)” value [6, 13] was “decreases sucrose intake” and the IC100 ([6]; Rimonabant, male mice) was 10 mg/kg. For the same molecule, the “Increase in anxiety and depression related behaviors (repeated administration): Effect (Rimonabant)” value ([6]; male mice) was “Yes”, the “Increase in anxiety and depression related behaviors (repeated administration): Effect (Rimonabant)” value [6, 11] was “increased anxiety and depression-related behavior” and the “N fold IC100” value [6, 12] was 1.
With `COc1ccc(CO[C@H]2CC[C@@]3(C)C(=CC[C@H]4[C@@H]5CC[C@H](C(C)=O)[C@@]5(C)CC[C@@H]43)C2)cc1` [[^3H]-3pMBP] the “Major metabolites in plasma” value [7] was “does not produce any major metabolites in plasma”.
With `CC(=O)[C@H]1CC[C@H]2[C@@H]3CC=C4C[C@@H](O)CC[C@]4(C)[C@H]3CC[C@]12C` [pregnenolone] the displacement of binding [8] was > 40%, the displacement of binding [9] was > 40% and the displacement of binding [10] was > 80%.
